Patent publication US20230113037A1 (Bayer Aktiengesellschaft, priority 2019, published 2023)
pIC50: −log10 of the molar value. Where two headings read alike, the source gives them in different places.

How the values were obtained:
AHR [1] = molecular target: T1, AHR (Mus musculus, UniProt P30561); test: In vitro assay 3: antagonism in mouse cell line (AHR transactivation, firefly luciferase reporter, kynurenic acid prestimulated); format: cell-based
T1 sequence (P30561 1-848 P471L/N533S/M589L): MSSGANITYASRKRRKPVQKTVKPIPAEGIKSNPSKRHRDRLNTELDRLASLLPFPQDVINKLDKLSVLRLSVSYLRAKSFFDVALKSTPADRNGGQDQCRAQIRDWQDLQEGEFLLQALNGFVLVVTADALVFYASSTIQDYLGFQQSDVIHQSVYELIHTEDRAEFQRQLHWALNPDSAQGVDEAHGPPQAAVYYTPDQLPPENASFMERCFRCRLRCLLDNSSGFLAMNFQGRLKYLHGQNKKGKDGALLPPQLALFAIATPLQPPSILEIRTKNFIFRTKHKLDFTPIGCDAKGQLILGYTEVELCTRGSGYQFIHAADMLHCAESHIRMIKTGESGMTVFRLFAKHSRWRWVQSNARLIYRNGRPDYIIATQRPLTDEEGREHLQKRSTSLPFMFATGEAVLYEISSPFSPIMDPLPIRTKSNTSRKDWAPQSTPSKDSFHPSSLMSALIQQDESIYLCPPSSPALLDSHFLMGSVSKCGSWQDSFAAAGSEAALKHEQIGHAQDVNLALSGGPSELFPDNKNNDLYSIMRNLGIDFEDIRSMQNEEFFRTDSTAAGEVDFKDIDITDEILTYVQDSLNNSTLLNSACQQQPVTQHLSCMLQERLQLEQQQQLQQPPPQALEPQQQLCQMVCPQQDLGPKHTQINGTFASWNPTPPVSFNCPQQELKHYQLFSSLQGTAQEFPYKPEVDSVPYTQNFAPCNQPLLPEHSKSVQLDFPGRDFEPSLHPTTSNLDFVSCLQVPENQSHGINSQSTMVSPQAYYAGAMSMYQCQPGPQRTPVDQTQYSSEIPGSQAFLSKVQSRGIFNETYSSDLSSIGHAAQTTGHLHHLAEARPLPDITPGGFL
How it was run: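 Mouse cells stably carrying a DRE-driven, AHR-inducible firefly luciferase reporter were prestimulated with the endogenous agonist kynurenic acid before compound addition. Luciferase activity was measured by luminescence and normalized to positive and negative controls, with cells lacking kynurenic acid serving as full-inhibition control. Repeat tests are reported as mean or median.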

AHR [2] = molecular target: T2, AHR (Homo sapiens, UniProt P35869); test: In vitro assay 1: antagonism in human cell line (AHR transactivation, firefly luciferase reporter, kynurenic acid prestimulated); format: cell-based; conditions: AHR Antagonism Human IC50 [M]
T2 construct: U87 MG glioblastoma cells (ATCC #HTB-14) endogenously expressing AHR; endogenous in cells; host or cells: U87 MG glioblastoma cells (ATCC #HTB-14)
T2 sequence (P35869 11-848): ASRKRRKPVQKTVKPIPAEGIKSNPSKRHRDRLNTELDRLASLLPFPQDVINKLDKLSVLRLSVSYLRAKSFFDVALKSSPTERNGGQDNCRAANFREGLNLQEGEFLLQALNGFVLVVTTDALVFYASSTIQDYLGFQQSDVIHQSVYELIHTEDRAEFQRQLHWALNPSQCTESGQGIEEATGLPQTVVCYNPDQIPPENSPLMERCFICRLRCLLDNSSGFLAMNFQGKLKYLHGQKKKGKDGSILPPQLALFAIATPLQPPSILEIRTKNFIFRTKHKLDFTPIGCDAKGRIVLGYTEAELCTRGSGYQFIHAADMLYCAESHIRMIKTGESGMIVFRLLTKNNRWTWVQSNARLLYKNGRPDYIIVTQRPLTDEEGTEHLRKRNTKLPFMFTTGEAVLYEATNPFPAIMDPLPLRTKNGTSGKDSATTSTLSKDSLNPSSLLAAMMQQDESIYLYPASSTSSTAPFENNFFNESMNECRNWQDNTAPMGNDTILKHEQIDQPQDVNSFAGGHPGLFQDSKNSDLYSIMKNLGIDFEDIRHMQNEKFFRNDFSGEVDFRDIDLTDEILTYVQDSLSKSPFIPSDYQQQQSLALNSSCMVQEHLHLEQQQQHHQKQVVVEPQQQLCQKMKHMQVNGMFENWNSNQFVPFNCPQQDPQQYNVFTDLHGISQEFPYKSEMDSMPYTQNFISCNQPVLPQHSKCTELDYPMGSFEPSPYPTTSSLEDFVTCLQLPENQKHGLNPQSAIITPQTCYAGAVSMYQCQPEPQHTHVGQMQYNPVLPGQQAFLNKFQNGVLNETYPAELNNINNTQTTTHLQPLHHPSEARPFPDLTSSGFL
How it was run: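 U87 MG + DRE-firefly/constitutive-Renilla stable reporters; kynurenic acid prestim; dual-luc read; Renilla = tox; normalized vs pos/neg controls (pos: 150 μM KYNA + 5 μM staurosporine).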

[3] = mouse Hepa 1c1c7 cells, 200 μM kynurenic acid, 20 hours, read-out: AHR Antagonism Mouse IC50

## Cc1[nH]ncc1-c1nc2c3ccccc3nc(N[C@@H]3CCCCNC3=O)n2n1 [Example 609, (3R)-3-{[2-(5-methyl-1H-pyrazol-4-yl)[1,2,4]triazolo[1,5-c]quinazolin-5-yl]amino}azepan-2-one]
AHR [1]; [3]
  pIC50: 6.49
AHR [2]
  IC50: 1.57e-07 M

## Cn1cncc1-c1nc2c3ccccc3nc(N[C@@H]3CCCCNC3=O)n2n1 [Example 610, (3R)-3-{[2-(1-methyl-1H-imidazol-5-yl)[1,2,4]triazolo[1,5-c]quinazolin-5-yl]amino}azepan-2-one]
AHR [1]; [3]
  pIC50: 7.06
AHR [2]
  IC50: 2.44e-07 M

## O=C1NCCCC[C@H]1Nc1nc2ccccc2c2nc(-c3ccsc3Cl)nn12 [Example 611, (3R)-3-{[2-(2-chlorothiophen-3-yl)[1,2,4]triazolo[1,5-c]quinazolin-5-yl]amino}azepan-2-one]
AHR [1]; [3]
  pIC50: 8.50
AHR [2]
  IC50: 4.36e-09 M

## O=C1NCCCC[C@H]1Nc1nc2ccccc2c2nc(-c3ccc(OC4CC4)cc3)nn12 [Example 612, (3R)-3-({2-[4-(cyclopropyloxy)phenyl][1,2,4]triazolo[1,5-c]quinazolin-5-yl}amino)azepan-2-one]
AHR [1]; [3]
  pIC50: 8.91
AHR [2]
  IC50: 1.32e-09 M

## CC(C)Oc1ccc(-c2nc3c4ccccc4nc(N[C@@H]4CCCCNC4=O)n3n2)cc1 [Example 613, (3R)-3-[(2-{4-[(propan-2-yl)oxy]phenyl}[1,2,4]triazolo[1,5-c]quinazolin-5-yl)amino]azepan-2-one]
AHR [1]; [3]
  pIC50: 9.10
AHR [2]
  IC50: 1.17e-09 M

## O=C1NCCCC[C@H]1Nc1nc2ccccc2c2nc(-c3ccc(O)cc3)nn12 [Example 614, (3R)-3-{[2-(4-hydroxyphenyl)[1,2,4]triazolo[1,5-c]quinazolin-5-yl]amino}azepan-2-one]
AHR [1]; [3]
  pIC50: 7.62
AHR [2]
  IC50: 2.09e-08 M

## CCOc1ccc(-c2nc3c4ccccc4nc(N[C@@H]4CCCCNC4=O)n3n2)cc1 [Example 616, (3R)-3-{[2-(4-ethoxyphenyl)[1,2,4]triazolo[1,5-c]quinazolin-5-yl]amino}azepan-2-one]
AHR [1]; [3]
  pIC50: 8.97
AHR [2]
  IC50: 7.6e-10 M

## N#Cc1ccccc1-c1nc2c3ccccc3nc(N[C@@H]3CCCCNC3=O)n2n1 [Example 619, 2-(5-{[(3R)-2-oxoazepan-3-yl]amino}[1,2,4]triazolo[1,5-c]quinazolin-2-yl)benzonitrile]
AHR [1]; [3]
  pIC50: 8.53
AHR [2]
  IC50: 1.44e-09 M

## Nc1cccc(-c2nc3c4ccccc4nc(N[C@@H]4CCCCNC4=O)n3n2)c1 [Example 621, (3R)-3-{[2-(3-aminophenyl)[1,2,4]triazolo[1,5-c]quinazolin-5-yl]amino}azepan-2-one]
AHR [1]; [3]
  pIC50: 9.02
AHR [2]
  IC50: 1.02e-09 M

## Cc1cccc(C)c1-c1nc2c3ccccc3nc(N[C@@H]3CCCCNC3=O)n2n1 [Example 623, (3R)-3-{[2-(2,6-dimethylphenyl)[1,2,4]triazolo[1,5-c]quinazolin-5-yl]amino}azepan-2-one]
AHR [1]; [3]
  pIC50: 8.33
AHR [2]
  IC50: 3.37e-07 M

## COc1ccc(-c2nc3c4ccccc4nc(N[C@@H]4CCCCNC4=O)n3n2)cc1OC [Example 624, (3R)-3-{[2-(3,4-dimethoxyphenyl)[1,2,4]triazolo[1,5-c]quinazolin-5-yl]amino}azepan-2-one]
AHR [1]; [3]
  pIC50: 8.91
AHR [2]
  IC50: 3.49e-09 M

## O=C1NCCCC[C@H]1Nc1nc2ccccc2c2nc(-c3ccc(F)c(Cl)c3)nn12 [Example 625, (3R)-3-{[2-(3-chloro-4-fluorophenyl)[1,2,4]triazolo[1,5-c]quinazolin-5-yl]amino}azepan-2-one]
AHR [1]; read-out: AHR Antagonism Mouse IC50, mouse Hepa 1c1c7 cells, 200 μM kynurenic acid, 20 hours
  pIC50: < 5.70
AHR [2]
  IC50: 1.5e-09 M

## COc1ccc(-c2nc3c4ccccc4nc(N[C@@H]4CCCCNC4=O)n3n2)cc1C [Example 627, (3R)-3-{[2-(4-methoxy-3-methylphenyl)[1,2,4]triazolo[1,5-c]quinazolin-5-yl]amino}azepan-2-one]
AHR [1]; [3]
  pIC50: 9.49
AHR [2]
  IC50: 6.68e-10 M

## O=C1NCCCC[C@H]1Nc1nc2ccccc2c2nc(-c3ccc(O)c(F)c3)nn12 [Example 629, (3R)-3-{[2-(3-fluoro-4-hydroxyphenyl)[1,2,4]triazolo[1,5-c]quinazolin-5-yl]amino}azepan-2-one]
AHR [1]; [3]
  pIC50: 6.72
AHR [2]
  IC50: 4.88e-08 M

## CSc1ccc(-c2nc3c4ccccc4nc(N[C@@H]4CCCCNC4=O)n3n2)c(F)c1 [Example 630, (3R)-3-({2-[2-fluoro-4-(methylsulfanyl)phenyl][1,2,4]triazolo[1,5-c]quinazolin-5-yl}amino)azepan-2-one]
AHR [1]; [3]
  pIC50: 9.06
AHR [2]
  IC50: 4.83e-10 M

## COc1ccc(-c2nc3c4ccccc4nc(N[C@@H]4CCCCNC4=O)n3n2)c(F)c1 [Example 631, (3R)-3-{[2-(2-fluoro-4-methoxyphenyl)[1,2,4]triazolo[1,5-c]quinazolin-5-yl]amino}azepan-2-one]
AHR [1]; [3]
  pIC50: 8.45
AHR [2]
  IC50: 1e-09 M

## CC(C)Oc1ccc(-c2nc3c4ccccc4nc(N[C@@H]4CCCCNC4=O)n3n2)cc1F [Example 632, (3R)-3-[(2-{3-fluoro-4-[(propan-2-yl)oxy]phenyl}[1,2,4]triazolo[1,5-c]quinazolin-5-yl)amino]azepan-2-one]
AHR [1]; [3]
  pIC50: 9.11
AHR [2]
  IC50: 1.29e-09 M

## O=C1NCCCC[C@H]1Nc1nc2ccccc2c2nc(-c3ccc(F)c(F)c3)nn12 [Example 633, (3R)-3-{[2-(3,4-difluorophenyl)[1,2,4]triazolo[1,5-c]quinazolin-5-yl]amino}azepan-2-one]
AHR [1]; [3]
  pIC50: 9.19
AHR [2]
  IC50: 1.14e-09 M

## O=C1NCCCC[C@H]1Nc1nc2ccccc2c2nc(-c3ccc(O)cc3F)nn12 [Example 634, (3R)-3-{[2-(2-fluoro-4-hydroxyphenyl)[1,2,4]triazolo[1,5-c]quinazolin-5-yl]amino}azepan-2-one]
AHR [1]; [3]
  pIC50: 6.69
AHR [2]
  IC50: 9.09e-08 M

## COc1ccc(-c2nc3c4ccccc4nc(N[C@@H]4CCCCNC4=O)n3n2)cc1F [Example 635, (3R)-3-{[2-(3-fluoro-4-methoxyphenyl)[1,2,4]triazolo[1,5-c]quinazolin-5-yl]amino}azepan-2-one]
AHR [1]; [3]
  pIC50: 8.96
AHR [2]
  IC50: 9.49e-10 M

## Cc1cncc(-c2nc3c4ccccc4nc(N[C@@H]4CCCCNC4=O)n3n2)c1 [Example 636, (3R)-3-{[2-(5-methylpyridin-3-yl)[1,2,4]triazolo[1,5-c]quinazolin-5-yl]amino}azepan-2-one]
AHR [1]; [3]
  pIC50: 8.22
AHR [2]
  IC50: 2.32e-08 M

## Nc1ccc(-c2nc3c4ccccc4nc(N[C@@H]4CCCCNC4=O)n3n2)cn1 [Example 637, (3R)-3-{[2-(6-aminopyridin-3-yl)[1,2,4]triazolo[1,5-c]quinazolin-5-yl]amino}azepan-2-one]
AHR [1]; [3]
  pIC50: 7.67
AHR [2]
  IC50: 1.15e-08 M

## O=C1NCCCC[C@H]1Nc1nc2ccccc2c2nc(-c3ccnc(F)c3)nn12 [Example 638, (3R)-3-{[2-(2-fluoropyridin-4-yl)[1,2,4]triazolo[1,5-c]quinazolin-5-yl]amino}azepan-2-one]
AHR [1]; [3]
  pIC50: 7.98
AHR [2]
  IC50: 4e-09 M

## O=C1NCCCC[C@H]1Nc1nc2ccccc2c2nc(-c3cccnc3F)nn12 [Example 640, (3R)-3-{[2-(2-fluoropyridin-3-yl)[1,2,4]triazolo[1,5-c]quinazolin-5-yl]amino}azepan-2-one]
AHR [1]; [3]
  pIC50: 7.51
AHR [2]
  IC50: 2.54e-08 M
